Test results as given in patent US5120782A, “Substituted pyrrolo-pyridines pharmaceuticals” (Bayer Aktiengesellschaft, priority 1990, dated 1992).

These compounds were tested against T1, 3-hydroxy-3-methyl-glutaryl-coenzyme A (HMG-CoA) reductase (Rattus norvegicus, UniProt P51639) (assay: enzyme activity determination, inhibition of HMG-CoA reductase relative to mevinolin). Settings: relative inhibitory potency; IC50 of reference mevinolin set at 1 and compared with simultaneously determined IC50 of test compound; 20 min pre-incubation, 60 min at 37° C.
T1 construct: the livers were removed from the animals and placed on ice; from tissue; host or cells: liver of male Rico rats fed colestyramine; 100,000 g (microsomal) pellet, frozen at -78° C
T1 sequence (P51639 1-887): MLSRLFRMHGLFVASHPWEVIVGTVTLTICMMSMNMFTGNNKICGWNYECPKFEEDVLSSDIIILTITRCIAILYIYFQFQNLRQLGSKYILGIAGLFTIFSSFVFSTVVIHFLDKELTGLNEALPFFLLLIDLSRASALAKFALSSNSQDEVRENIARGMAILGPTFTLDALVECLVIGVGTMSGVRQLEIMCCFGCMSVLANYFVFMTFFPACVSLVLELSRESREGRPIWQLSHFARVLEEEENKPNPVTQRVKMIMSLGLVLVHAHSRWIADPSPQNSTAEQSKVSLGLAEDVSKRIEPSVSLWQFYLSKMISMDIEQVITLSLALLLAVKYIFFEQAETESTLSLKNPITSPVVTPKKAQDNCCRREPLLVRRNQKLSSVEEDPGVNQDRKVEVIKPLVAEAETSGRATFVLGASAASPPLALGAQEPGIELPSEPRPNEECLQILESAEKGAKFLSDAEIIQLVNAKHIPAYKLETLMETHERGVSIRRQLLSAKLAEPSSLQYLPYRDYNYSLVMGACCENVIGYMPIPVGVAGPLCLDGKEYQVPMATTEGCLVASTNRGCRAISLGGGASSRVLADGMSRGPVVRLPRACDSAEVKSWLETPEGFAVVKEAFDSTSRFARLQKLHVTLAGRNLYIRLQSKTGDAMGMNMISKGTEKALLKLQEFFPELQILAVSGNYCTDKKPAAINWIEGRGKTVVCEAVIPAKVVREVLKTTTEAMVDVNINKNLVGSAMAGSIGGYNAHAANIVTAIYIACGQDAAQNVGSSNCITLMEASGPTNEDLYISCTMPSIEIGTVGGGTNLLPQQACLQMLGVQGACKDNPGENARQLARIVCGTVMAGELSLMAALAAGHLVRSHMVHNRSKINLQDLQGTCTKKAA
Type: biochemical, Male Rico rats (liver)
Description: The enzyme activity determination was carried out as modified by G. C. Ness et al., Archives of Biochemistry and Biophysics 197, 493-499 (1979). Male Rico rats (body weight 300-400 g) were treated with altromin powdered feed, to which 40 g of colestyramine/kg of feed had been added, for 11 days. After decapitation, the livers were removed from the animals and placed on ice. The livers were comminuted and homogenized 3 times in a Potter-Elvejem homogenizsr in 3 volumes of 0.1 M sucrose, 0.05 M KCl, 0.04 M Kx Hy phosphate, 0.03 M ethylene-diaminetetraacetic acid, 0.002 M dithiothreitol (SPE) buffer pH 7.2. The mixture was then centrifuged at 15,000 g for 15 minutes and the sediment was discarded. The supernatant was sedimented at 100,000 g for 75 minutes. The pellet was taken up in 1/4 volumes of SPE buffer, homogenized again and then centrifuged again at 100,000 g for 60 minutes. The pellet was taken up using a 5-fold amount of its volume of SPE buffer, homogenized and frozen and stored at -78° C. (=enzyme solution).
For testing, the test compounds (or mevinolin as a reference substance) were dissolved in dimethylformamide with the addition of 5 vol. % of 1 N NaOH and employed in the enzyme test using 10 μl in various concentrations. The test was begun after 20 minutes pre-incubation of the compounds with the enzyme at 37° C. The test mixture amounted to 0.380 ml and contained 4 μmol of glucose 6-phosphate, 1.1 mg of bovine serum albumin, 2.1 μmol of dithiothreitol, 0.35 μmol of NADP, 1 unit of glucose 6-phosphate dehydrogenase, 35 μmol of Kx Hy phosphate pH 7.2, 20 μl of enzyme preparation and 56 nmol of 3-hydroxy-3-methyl--glutaryl coenzyme A (glutaryl-3-^14 C) of 100,000 dpm.
After an incubation of 60 minutes at 37° C., the mixture was centrifuged and 600 μl of the supernatant was applied to a 0.7×4 cm column packed with a 5-chloride 100-200 mesh (anion exchanger). The column was washed with 2 ml of distilled water and 3 ml of Aquasol was added to the runnings plus washing water and counted in an LKB scintillation counter. IC50 values were determined by intrapolation by plotting the percentage inhibition against the concentration of the compound in the test. In order to determine the relative inhibitory potency, the IC50 value of the reference substance mevinolin was set at 1 and compared with the simultaneously determined IC50 value of the test compound.

in vitro relative activity (Mevinolin = 1) | SMILES
3 | COC(=O)C[C@H](O)C[C@H](O)/C=C/c1c(C(C)C)nc2c(ccn2C)c1-c1ccc(F)cc1 (relative stereo) [Example 1b]
13 | COC(=O)C[C@H](O)C[C@H](O)/C=C/c1c(C(C)C)nc2c(ccn2C(C)C)c1-c1ccc(F)cc1 (relative stereo) [Example 1c]
4 | COC(=O)C[C@H](O)C[C@H](O)/C=C/c1c(C(C)C)nc2c(ccn2Cc2ccccc2)c1-c1ccc(F)cc1 (relative stereo) [Example 1g]
2 | CC(C)c1nc2c(ccn2Cc2ccccc2)c(-c2ccc(F)cc2)c1/C=C/[C@@H](O)C[C@@H](O)CC(=O)O (relative stereo) [Example 2g]
17 | COC(=O)C[C@H](O)C[C@H](O)/C=C/c1c(C(C)C)nc2c(ccn2CCc2ccccc2)c1-c1ccc(F)cc1 (relative stereo) [Example 1f]
3 | CC(C)c1nc2c(ccn2C(C)C)c(-c2ccc(F)cc2)c1/C=C/[C@@H](O)C[C@@H](O)CC(=O)O (relative stereo) [Example 2c]
24 | COC(=O)C[C@H](O)C[C@H](O)/C=C/c1c(C(C)C)nc2c(ccn2CCC#N)c1-c1ccc(F)cc1 (relative stereo) [Example 1j]
33 | C=CCn1ccc2c(-c3ccc(F)cc3)c(/C=C/[C@@H](O)C[C@@H](O)CC(=O)OC)c(C(C)C)nc21 (relative stereo) [Example 1h]
10 | C=CCn1ccc2c(-c3ccc(F)cc3)c(/C=C/[C@@H](O)C[C@@H](O)CC(=O)O)c(C(C)C)nc21 (relative stereo) [Example 2h]
27 | COC(=O)C[C@H](O)C[C@H](O)/C=C/c1c(C(C)C)nc2c(ccn2CC#N)c1-c1ccc(F)cc1 (relative stereo) [Example 1d]
3 | CC(C)c1nc2c(ccn2C)c(-c2ccc(F)cc2)c1/C=C/[C@@H](O)C[C@@H](O)CC(=O)O (relative stereo) [Example 2b]
3 | CC(C)c1nc2[nH]ccc2c(-c2ccc(F)cc2)c1/C=C/[C@@H](O)C[C@@H](O)CC(=O)O (relative stereo) [Example 2a, Sodium erythro-(E)-7-[4-(4-fluorophenyl)-6-isopropyl-1H-pyrrolo[2,3-b]pyridin-5-yl]-3,5-dihydroxy-hept-6-enoate]
9 | COC(=O)C[C@H](O)C[C@H](O)/C=C/c1c(C(C)C)nc2c(ccn2Cc2cccnc2)c1-c1ccc(F)cc1 (relative stereo) [Example 1i]
17 | C#CCn1ccc2c(-c3ccc(F)cc3)c(/C=C/[C@@H](O)C[C@@H](O)CC(=O)OC)c(C(C)C)nc21 (relative stereo) [Example 1e]
10 | CC(C)c1nc2c(ccn2CCc2ccccc2)c(-c2ccc(F)cc2)c1/C=C/[C@@H](O)C[C@@H](O)CC(=O)O (relative stereo) [Example 2f]
3 | COC(=O)C[C@H](O)C[C@H](O)/C=C/c1c(C(C)C)nc2[nH]ccc2c1-c1ccc(F)cc1 (relative stereo) [Example 1a, Methyl erythro-(E)-7-[4-(4-fluorophenyl)-6-isopropyl-1H-pyrrolo[2,3-b]pyridin-5-yl]3,5-dihydroxy-hept-6-enoate]
